From US4272437A, “Antibacterial agents, and 4-thio azetidinone intermediates” (priority 1979, dated 1981)
≈ marks a conversion by molar mass, not a printed value. Like-named read-outs stand apart in the source and are kept apart here.

Columns and labels:
[1] = test system: Str. pneumoniae A-9585; test: MIC, tube dilution, Streptococcus pneumoniae A9585; format: cell-based; conditions: Streptococcus pneumoniae, A9585, Str. pneumoniae A9585; overnight 37° C., Nutrient Broth; read-out: Minimum Inhibitory Concentration (M.I.C.)
Source text: (§1) Representative compounds of the present invention were subjected to in vitro antibiotic screening against a variety of microorganisms.

[2] = test system: Str. pyogenes A-9604; test: MIC, tube dilution, Streptococcus pyogenes A9604; format: cell-based; conditions: overnight 37° C., Nutrient Broth; for MIC: Streptococcus pyogenes, A9604, Str. pyogenes A9604, read-out: Minimum Inhibitory Concentration (M.I.C.)
Source text: as §1

[3] = test system: Staph. aureus A-9537; test: MIC, tube dilution, Staphylococcus aureus A9537; format: cell-based; conditions: overnight 37° C., Nutrient Broth; for MIC: Staphylococcus aureus, A9537, Staph. aureus A9537, read-out: Minimum Inhibitory Concentration (M.I.C.)
Source text: as §1

[4] = test system: Staph. aureus A-9537 and 50% serum; test: MIC, tube dilution, Staph. aureus A9537 + 50% serum; format: cell-based, Staphylococcus aureus; conditions: Staphylococcus aureus, overnight 37° C., read-out: Minimum Inhibitory Concentration (M.I.C.)
Source text: as §1

[5] = test system: Staph. aureus (Pen-Res) A-9606; test: MIC, tube dilution, Staphylococcus aureus A9606 (Pen-Res); format: cell-based; conditions: Staphylococcus aureus, overnight 37° C.
Source text: as §1

[6] = test system: Staph. aureus (Meth-Res) A-15097; test: MIC, tube dilution, Staphylococcus aureus A15097 (Meth-Res); format: cell-based; conditions: overnight 37° C.; for MIC: Staphylococcus aureus
Source text: as §1

[7] = test system: Str. faecalis A-20688; test: MIC, tube dilution, Streptococcus faecalis A20688; format: cell-based; conditions: Enterococcus faecalis, A20688, Str. faecalis A20688; overnight 37° C.; read-out: Minimum Inhibitory Concentration (M.I.C.)
Source text: as §1

[8] = test system: E. coli A-15119; test: MIC, tube dilution, Escherichia coli A15119; format: cell-based; conditions: Escherichia coli, A15119, E. coli A15119; overnight 37° C.; read-out: Minimum Inhibitory Concentration (M.I.C.)
Source text: as §1

[9] = test system: E. coli A-20341-1; test: MIC, tube dilution, Escherichia coli A20341-1; format: cell-based
Source text: as §1

[10] = test system: K. pneumoniae A-15130; test: MIC, tube dilution, Klebsiella pneumoniae A15130; format: cell-based; conditions: Klebsiella pneumoniae, A15130, K. pneumoniae A15130; overnight 37° C.; read-out: Minimum Inhibitory Concentration (M.I.C.)
Source text: as §1

[11] = test system: Klebsiella species A20468; test: MIC, tube dilution, Klebsiella species A20468; format: cell-based; conditions: Klebsiella species (K. pneumoniae) A20468; overnight 37° C.; read-out: Minimum Inhibitory Concentration (M.I.C.)
Source text: as §1

[12] = test system: Pr. mirabilis A-9900; test: MIC, tube dilution, Proteus mirabilis A9900; format: cell-based; conditions: Proteus mirabilis, A9900, Proteus mirabilis A9900; overnight 37° C.; read-out: Minimum Inhibitory Concentration (M.I.C.)
Source text: as §1

[13] = test system: Pr. morganii A-15153; test: MIC, tube dilution, Proteus morganii A15153; format: cell-based; conditions: Morganella morganii, A15153, Proteus morganii A15153; overnight 37° C.; read-out: Minimum Inhibitory Concentration (M.I.C.)
Source text: as §1

[14] = test system: Ser. marcescens A-20019; test: MIC, tube dilution, Serratia marcescens A20019; format: cell-based; conditions: Serratia marcescens, A20019, Serratia marcescens A20019; overnight 37° C.; read-out: Minimum Inhibitory Concentration (M.I.C.)
Source text: as §1

[15] = test system: Ent. cloacae A-9659; test: MIC, tube dilution, Enterobacter cloacae A9659; format: cell-based; conditions: Enterobacter cloacae, A9659, Enterobacter cloacae A9659; overnight 37° C.; read-out: Minimum Inhibitory Concentration (M.I.C.)
Source text: as §1

[16] = test system: Ent. cloacae A-9656; test: MIC, tube dilution, Enterobacter cloacae A9656; format: cell-based; conditions: overnight 37° C., read-out: Minimum Inhibitory Concentration (M.I.C.)
Source text: as §1

[17] = test system: Ps. aeruginosa A-9843A; test: MIC, tube dilution, Pseudomonas aeruginosa A9843A; format: cell-based; conditions: Pseudomonas aeruginosa, A9843A, read-out: Minimum Inhibitory Concentration (M.I.C.), Pseudomonas aeruginosa A9843A; overnight 37° C.
Source text: as §1

[18] = test system: Ps. aeruginosa A-21213; test: MIC, tube dilution, Pseudomonas aeruginosa A21213; format: cell-based; conditions: overnight 37° C., read-out: Minimum Inhibitory Concentration (M.I.C.)
Source text: as §1

[19] = test system: Proteus rettgeri A21203; test: MIC, tube dilution, Proteus rettgeri A21203; format: cell-based; conditions: Providencia rettgeri, overnight 37° C., read-out: Minimum Inhibitory Concentration (M.I.C.)
Source text: as §1

[20] = test system: Proteus vulgaris A21559; test: MIC, tube dilution, Proteus vulgaris A21559; format: cell-based; conditions: Proteus vulgaris
Source text: as §1

[21] = Staph. aureus A9606 (Pen-Res), read-out: Minimum Inhibitory Concentration (M.I.C.)
[22] = Staph. aureus A15097 (Meth-Res), read-out: Minimum Inhibitory Concentration (M.I.C.)
[23] = Escherichia coli, A203411, E. coli A20341-1; overnight 37° C.; read-out: Minimum Inhibitory Concentration (M.I.C.)
[24] = Enterobacter cloacae, A9656, Enterobacter cloacae A9656
[25] = Pseudomonas aeruginosa, A21213, Pseudomonas aeruginosa A21213
[26] = A21203, Proteus rettgeri A21203
[27] = A21559, Proteus vulgaris A21559, overnight 37° C., read-out: Minimum Inhibitory Concentration (M.I.C.)
[28] = read-out: Minimum Inhibitory Concentration (M.I.C.), Staph. aureus A9606 (Pen-Res)
[29] = read-out: Minimum Inhibitory Concentration (M.I.C.), Staph. aureus A15097 (Meth-Res)
[30] = Escherichia coli, A203411; E. coli A20341-1; overnight 37° C.; read-out: Minimum Inhibitory Concentration (M.I.C.)

C[C@@H](O)[C@H]1C(=O)N2C(C(=O)O)=C(COCCN)S[C@H]12 (relative stereo) [66,96]
MIC [1]: 0.03 µg/mL (≈ 0.104 µM)
MIC [2]: 0.03 µg/mL (≈ 0.104 µM)
MIC [3]: 0.06 µg/mL (≈ 0.208 µM)
MIC [4]: 0.5 µg/mL
MIC [5, 21]: 0.25 µg/mL (≈ 0.867 µM)
MIC [6, 22]: 1 µg/mL (≈ 3.47 µM)
MIC [7]: 4 µg/mL (≈ 13.9 µM)
MIC [8]: 0.5 µg/mL (≈ 1.73 µM)
MIC [9, 23]: 0.5 µg/mL (≈ 1.73 µM)
MIC [10]: 2 µg/mL (≈ 6.94 µM)
MIC [11]: 2 µg/mL (≈ 6.94 µM)
MIC [12]: 1 µg/mL (≈ 3.47 µM)
MIC [13]: 4 µg/mL (≈ 13.9 µM)
MIC [14]: 2 µg/mL (≈ 6.94 µM)
MIC [15]: 8 µg/mL (≈ 27.7 µM)
MIC [16, 24]: 2 µg/mL (≈ 6.94 µM)
MIC [17]: 16 µg/mL (≈ 55.5 µM)
MIC [18, 25]: 8 µg/mL (≈ 27.7 µM)
MIC [19, 26]: 2 µg/mL (≈ 6.94 µM)
MIC [20, 27]: 1 µg/mL (≈ 3.47 µM)

CC1=C(C(=O)O)N2C(=O)[C@@H]([C@@H](C)O)[C@H]2S1 (relative stereo) [Example 58, (1'R,5R,6R) and (1'S,5S,6S) 6-(1'-Hydroxy-1'-ethyl)-2-methylpenem-3-carboxylic Acid (isomer D)]
Minimum Inhibitory Concentration (M.I.C.) ([2]; Str. pyogenes A9604): 2 µg/mL
Minimum Inhibitory Concentration (M.I.C.) ([3]; Staph. aureus A9537): 4 µg/mL
Minimum Inhibitory Concentration (M.I.C.) ([6]; Staph. aureus A15097 (Meth-Res)): 16 µg/mL

CC1=C(C(=O)O)N2C(=O)[C@H]([C@H](C)O)[C@H]2S1 (relative stereo) [Example 59, (1'S,5R,6S and 1'R,5S,6R) 6-(1'-Hydroxy-1'-ethyl)-2-methyl penem-3-carboxylic acid (isomer C)]
MIC [1]: 32 µg/mL (≈ 140 µM)
MIC [2]: 125 µg/mL (≈ 545 µM)
MIC [3]: > 125 µg/mL
MIC [4]: > 63 µg/mL
MIC [5, 28]: > 125 µg/mL
MIC [6, 29]: > 125 µg/mL
MIC [7]: > 125 µg/mL
MIC [8]: > 125 µg/mL
MIC [9, 30]: > 125 µg/mL
MIC [10]: > 125 µg/mL
MIC [11]: > 125 µg/mL
MIC [12]: > 125 µg/mL
MIC [13]: > 125 µg/mL
MIC [14]: > 125 µg/mL
MIC [15]: > 125 µg/mL
MIC ([16]; Enterobacter cloacae A9656): > 125 µg/mL
MIC [17]: > 125 µg/mL
MIC ([18]; Pseudomonas aeruginosa A21213): > 125 µg/mL
MIC ([19]; Proteus rettgeri A21203): > 125 µg/mL
MIC ([20]; A21559, read-out: Minimum Inhibitory Concentration (M.I.C.)): > 125 µg/mL

CC1=C(C(=O)O)N2C(=O)[C@@H]([C@H](C)O)[C@H]2S1 (relative stereo) [Example 61, (1'S,5R,6R and 1'R,5S,6S) 6-(1'-Hydroxy-1'-ethyl)-2-methylpenem-3-carboxylic Acid (isomer A)]
MIC [1]: 0.03 µg/mL (≈ 0.131 µM)
MIC [2]: 0.06 µg/mL (≈ 0.262 µM)
MIC [3]: 0.5 µg/mL (≈ 2.18 µM)
MIC [4]: 4 µg/mL
MIC [5, 21]: 1 µg/mL (≈ 4.36 µM)
MIC [6, 22]: 2 µg/mL (≈ 8.72 µM)
MIC [7]: 2 µg/mL (≈ 8.72 µM)
MIC [8]: 2 µg/mL (≈ 8.72 µM)
MIC [9, 23]: 8 µg/mL (≈ 34.9 µM)
MIC [10]: 8 µg/mL (≈ 34.9 µM)
MIC [11]: 63 µg/mL (≈ 275 µM)
MIC [12]: 2 µg/mL (≈ 8.72 µM)
MIC [13]: 8 µg/mL (≈ 34.9 µM)
MIC [14]: 8 µg/mL (≈ 34.9 µM)
MIC [15]: 8 µg/mL (≈ 34.9 µM)
MIC [16, 24]: 32 µg/mL (≈ 140 µM)
MIC [17]: 63 µg/mL (≈ 275 µM)
MIC [19, 26]: 2 µg/mL (≈ 8.72 µM)
MIC [20, 27]: 4 µg/mL (≈ 17.4 µM)

CC1=C(C(=O)O)N2C(=O)[C@H]([C@@H](C)N)[C@H]2S1 (relative stereo) [Example 70, (1'R,5R,6S and 1'S,5S,6R) 6-1'Amino-1'-ethyl)-2-methylpenem-3-carboxylic Acid]
MIC [1]: > 63 µg/mL
MIC [2]: > 63 µg/mL
MIC [3]: > 63 µg/mL
MIC [4]: > 32 µg/mL
MIC [5, 21]: > 63 µg/mL
MIC [6, 22]: > 63 µg/mL
MIC [7]: > 63 µg/mL
MIC [8]: > 63 µg/mL
MIC [9, 23]: > 63 µg/mL
MIC [10]: > 63 µg/mL
MIC [11]: > 63 µg/mL
MIC [12]: > 63 µg/mL
MIC [13]: > 63 µg/mL
MIC [14]: > 63 µg/mL
MIC [15]: > 63 µg/mL
MIC [16, 24]: > 63 µg/mL
MIC [17]: > 63 µg/mL
MIC [18, 25]: > 63 µg/mL
MIC [19, 26]: > 63 µg/mL
MIC [20, 27]: > 63 µg/mL

O=C(O)C1=C(C2CC2)SC2CC(=O)N12 (centres unmarked) [Example 14, 2-Cyclopropylpenem-3-carboxylic Acid]
MIC [1]: 0.06 µg/mL (≈ 0.284 µM)
MIC [2]: 0.25 µg/mL (≈ 1.18 µM)
MIC [3]: 0.13 µg/mL (≈ 0.615 µM)
MIC [4]: 16 µg/mL
MIC [6, 22]: 2 µg/mL (≈ 9.47 µM)
MIC [7]: 63 µg/mL (≈ 298 µM)
MIC [8]: 4 µg/mL (≈ 18.9 µM)
MIC [9, 23]: 63 µg/mL (≈ 298 µM)
MIC [10]: 16 µg/mL (≈ 75.7 µM)
MIC [11]: > 125 µg/mL
MIC [12]: 4 µg/mL (≈ 18.9 µM)
MIC [13]: 16 µg/mL (≈ 75.7 µM)
MIC [14]: 8 µg/mL (≈ 37.9 µM)
MIC [15]: 16 µg/mL (≈ 75.7 µM)
MIC [16, 24]: 16 µg/mL (≈ 75.7 µM)
MIC [17]: 125 µg/mL (≈ 592 µM)
MIC ([18]; Pseudomonas aeruginosa A21213): 125 µg/mL (≈ 592 µM)
MIC [19, 26]: 4 µg/mL (≈ 18.9 µM)

O=C([O-])C1=C(CO)S[C@@H]2CC(=O)N12.[Na+] [Preparation 20, Sodium 2-Hydroxymethylpenem-3-carboxylate]
MIC [1]: 0.25 µg/mL
MIC [2]: 1 µg/mL
MIC [3]: 2 µg/mL
MIC [4]: 16 µg/mL
MIC [5, 28]: 4 µg/mL
MIC [6, 29]: 8 µg/mL
MIC [7]: > 125 µg/mL
MIC [8]: 16 µg/mL
MIC [9, 30]: 63 µg/mL
MIC [10]: 63 µg/mL
MIC [11]: > 125 µg/mL
MIC [12]: 16 µg/mL
MIC [13]: 32 µg/mL
MIC [14]: 32 µg/mL
MIC [15]: 63 µg/mL
MIC ([16]; Enterobacter cloacae A9656): 32 µg/mL
MIC [17]: 125 µg/mL
MIC ([18]; Pseudomonas aeruginosa A21213): > 125 µg/mL
MIC ([19]; Proteus rettgeri A21203): 32 µg/mL
